The source of these data is US9241991B2, “Agents, compositions, and methods for treating pruritus and related skin conditions” (The Brigham and Women's Hospital, Inc., priority 2010, dated 2016).

For one data set, the system named is TLR7 mRNA. Description: TLR7 mRNA levels in cervical DRGs by quantitative PCR after siRNA. The data set is classed as in vivo, mice. Particulars: siRNA 4 μg intrathecal, P<0.05. As for the experimental part: (§1) 4 μg siRNA targeting TLR7 ([…] (SEQ ID NO:8)) (synthesized by Dharmacon, On-target Plus) or a non-targeting control siRNA ([…] (SEQ ID NO:9)) was administered intrathecallly to wild type (CD1) mice at 24 and 48 hours before the mice received an injection of IMQ ([…]). siRNA was dissolved in RNase-free water at 1 μg/μl as stock solution and mixed with polyethyleneimine (PEI, Fermentas Inc. Hanover, USA, 0.18 μl of PEI solution for 1 μg of siRNA), 10 minutes before injection, to increase cell membrane penetration and reduce the degradation. PEI was dissolved in 5% glucose. After behavioral testing, DRG tissues were collected for quantitative PCR analysis.

For data set [1], the system named is TLR7. As to the kind of experiment: IMQ-induced scratches after intrathecal TLR7 siRNA. Particulars: siRNA 4 μg intrathecal with PEI 48 and 24 h before IMQ (20 mg, 20 μg elsewhere in the source), CD1 mice, vs NT siRNA; P<0.05. The data set is classed as in vivo. As for the experimental part:
as §1

The target in data set [2] is T1, TLR7 (Mus musculus, UniProt P58681).
T1 construct: We found functional TLR7 receptors in small-size DRG neurons; from tissue; host or cells: small DRG neurons of mice; nape and cheek skin of live mice (C57BL/6J background, CD1)
T1 sequence (P58681 27-1050): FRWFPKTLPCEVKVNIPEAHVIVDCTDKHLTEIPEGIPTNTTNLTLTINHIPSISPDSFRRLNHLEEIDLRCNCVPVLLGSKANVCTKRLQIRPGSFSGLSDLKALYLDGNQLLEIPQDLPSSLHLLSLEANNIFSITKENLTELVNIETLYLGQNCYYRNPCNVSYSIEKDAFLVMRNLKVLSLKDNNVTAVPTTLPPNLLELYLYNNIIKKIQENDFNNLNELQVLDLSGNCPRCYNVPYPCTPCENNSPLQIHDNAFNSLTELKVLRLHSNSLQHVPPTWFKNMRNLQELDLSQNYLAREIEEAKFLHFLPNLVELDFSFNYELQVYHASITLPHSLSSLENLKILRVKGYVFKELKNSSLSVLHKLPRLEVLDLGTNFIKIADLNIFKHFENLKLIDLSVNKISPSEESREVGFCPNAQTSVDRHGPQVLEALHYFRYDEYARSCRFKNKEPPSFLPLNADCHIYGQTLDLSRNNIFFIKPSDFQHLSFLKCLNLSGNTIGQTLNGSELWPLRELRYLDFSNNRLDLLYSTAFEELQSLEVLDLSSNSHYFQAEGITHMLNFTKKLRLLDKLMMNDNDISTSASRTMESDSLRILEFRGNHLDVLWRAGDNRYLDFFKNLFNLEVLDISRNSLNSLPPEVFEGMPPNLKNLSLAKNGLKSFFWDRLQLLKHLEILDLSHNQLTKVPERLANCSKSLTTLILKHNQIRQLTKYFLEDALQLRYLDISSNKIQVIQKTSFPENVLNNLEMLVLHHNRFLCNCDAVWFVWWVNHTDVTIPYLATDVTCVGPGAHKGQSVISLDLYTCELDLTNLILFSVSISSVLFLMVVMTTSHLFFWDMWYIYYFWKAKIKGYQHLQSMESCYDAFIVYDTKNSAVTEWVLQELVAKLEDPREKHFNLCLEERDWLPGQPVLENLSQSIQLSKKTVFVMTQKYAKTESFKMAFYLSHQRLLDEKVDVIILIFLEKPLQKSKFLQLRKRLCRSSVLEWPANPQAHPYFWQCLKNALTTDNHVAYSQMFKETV
Description: Patch clamp recording of inward currents and action potentials in small DRG neurons, TLR7 ligands. The data set is classed as cell-based, mice. (In general: The patch-clamp technique gives a direct electrical read-out from membranes.)

The subject of data set [3] is TLR7. As to the kind of experiment: Scratches after intradermal injection in the nape of the neck, WT and Tlr7-/- mice. The data set is classed as in vivo. From the text:
We next evaluated whether TLR7 plays a role in itch sensation. We counted the number of scratches (bouts) by a hindpaw of mouse following intradermal injection of pruritogenic agents in the nape of the neck.

In the next data set the test system is mice. As to the kind of experiment: Imiquimod-induced scratching in Trpv1-/- and mast cell-deficient SASH mice. The format is in vivo.
The target in data set [4] is T2, TLR7 (Homo sapiens, UniProt Q9NYK1).
T2 construct: host or cells: human skin, clinical use (Madan et al. 2010)
T2 sequence (Q9NYK1 27-1049): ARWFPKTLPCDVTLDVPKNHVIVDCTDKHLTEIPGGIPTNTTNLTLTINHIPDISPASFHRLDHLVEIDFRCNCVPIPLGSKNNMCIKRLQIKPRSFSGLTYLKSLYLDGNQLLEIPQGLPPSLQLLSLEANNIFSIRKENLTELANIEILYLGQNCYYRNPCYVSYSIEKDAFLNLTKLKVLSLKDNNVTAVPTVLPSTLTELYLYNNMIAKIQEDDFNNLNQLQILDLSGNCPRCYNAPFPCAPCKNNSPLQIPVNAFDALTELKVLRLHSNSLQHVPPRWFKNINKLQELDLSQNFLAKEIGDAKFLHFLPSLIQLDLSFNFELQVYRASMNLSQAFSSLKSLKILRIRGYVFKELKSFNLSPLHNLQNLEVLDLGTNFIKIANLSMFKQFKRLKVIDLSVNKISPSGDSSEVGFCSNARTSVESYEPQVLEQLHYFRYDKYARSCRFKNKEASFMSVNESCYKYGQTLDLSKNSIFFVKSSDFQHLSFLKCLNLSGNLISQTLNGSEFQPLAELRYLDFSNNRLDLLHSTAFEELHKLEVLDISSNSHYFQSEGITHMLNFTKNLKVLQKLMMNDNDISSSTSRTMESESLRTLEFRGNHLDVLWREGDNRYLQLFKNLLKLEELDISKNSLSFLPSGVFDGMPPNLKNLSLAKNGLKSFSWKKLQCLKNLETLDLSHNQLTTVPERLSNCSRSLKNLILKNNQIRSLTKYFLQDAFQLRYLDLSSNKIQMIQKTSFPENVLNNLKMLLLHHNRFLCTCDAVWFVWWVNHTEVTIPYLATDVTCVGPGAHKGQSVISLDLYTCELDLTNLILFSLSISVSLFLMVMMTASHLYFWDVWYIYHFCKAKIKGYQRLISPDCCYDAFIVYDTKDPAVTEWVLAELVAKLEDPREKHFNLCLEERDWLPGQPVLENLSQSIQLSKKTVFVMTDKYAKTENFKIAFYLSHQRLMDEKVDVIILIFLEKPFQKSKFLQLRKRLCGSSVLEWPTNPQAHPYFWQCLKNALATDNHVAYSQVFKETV
As to conditions: cited from earlier work.

The target in data set [5] is T1, TLR7. As to conditions: mice; cited from earlier work.
The target in data set [6] is T1, TLR7. Description: Cheek model of itch versus pain, TLR7 ligands. The data set is classed as in vivo, mice. As to conditions: 20 μg intradermal into the cheek. As for the experimental part: To distinguish itch and pain responses simultaneously, we used the cheek model by injection of chemical into cheek of mice (8). After brief anesthesia with isoflurane, we shaved mice on cheeks (approx. 5×8 mm area) two days before experiments. On the day of experiment, we injected 10 μl of reagent (50 μg compound 48/80 or 100 μg chloroquine) into the cheek and counted the number of wipes and the number of scratches for 30 min. We only counted those unilateral wipes with the forelimb that were not part of grooming behavior. One scratch was defined as a lifting of the hind paw toward the injection site on the cheek and then returning the paw to the floor or to the mouth.
To further investigate a unique role of TLR7 in itch versus pain, we used a recently developed “cheek model” of itch (Shimada, S. G. & LaMotte, R. H. Pain 139, 681-687 (2008)).

Regarding “TLR7 siRNA: siRNA targeting TLR7 (CCUUACACUAUUUCCGAUA, SEQ ID NO:8), synthesized by Dharmacon, On-target Plus (chemistry not given here)”, the “TLR7 mRNA levels in cervical DRGs” value in the data set with TLR7 mRNA is listed as “reduced levels”. The IMQ induced scratches entry in the data set with TLR7 [1] is “significantly reduced”.

For the molecule `CC(C)Cn1cnc2c(N)nc3ccccc3c21` [imiquimod], the “neurons from WT mice that respond” value at TLR7 [2] (500 μM, small DRG neurons) is “Eight out of 17”. The “action potentials in DRG neurons” value at TLR7 [2] (WT but not Tlr7-/- mice, 500 μM) is listed as “induced action potentials”. Also, the “response of neurons from Tlr7-/- mice” value at TLR7 [2] (all 10 neurons) was “fail to respond”. For the same molecule, the “inward currents in DRG neurons” value at TLR7 [2] (capsaicin-responsive DRG neurons of WT but not Tlr7-/- mice, imiquimod 20-500 μM) is given as “dose-dependent inward currents”. Moreover, the “dose response curve of scratching” value in the data set with TLR7 [3] (intradermal injection, nape) is reported as “inverted-U-shaped dose response curve”. The “scratches in Tlr7-/- mice versus WT” value in the data set on TLR7 [3] (intradermal, 100 μg) is recorded as “reduced”. Besides, the “reduction in imiquimod-induced scratching in mast cell-deficient SASH mice” value in the data set on mice (SASH mice vs WT control) was 28%. For the same molecule, the “imiquimod-induced scratching in Trpv1-/- mice” value in the data set with mice (Trpv1-/- vs WT control) was “remained unaltered”. Also, the “pruritus on topical application” value at TLR7 [4] is given as “frequently elicits pruritus”. Besides, at TLR7 [5], the skin inflammation entry is “induces psoriasis-like skin inflammation”. For the same molecule, at TLR7 [6], the “itch-like scratching in cheek model” value was “elicited itch-like scratching” and the “pain-indicative wiping in cheek model” value is reported as “not pain-indicative wiping behavior”.
